Measurements published in patent US5308840A, “Substituted or unsubstituted benzhydryl heteroalkyl-substituted aminophenol compounds and pharmaceutical compositions thereof” (Green Cross Corporation, priority 1991, dated 1994).
Converted amounts (≈) assume the structure as drawn.

Experiments:
[1] = test system: lipoperoxide production in rat cerebral tissues; experiment: Inhibition of lipoperoxide production in rat cerebral tissues (TBA reaction in cerebral tissue homogenate); type: biochemical; conditions: 37° C., 120 minutes, test concentrations 10, 1, 0.1, 0.01, 0.001 μg/ml, absorbance 535 nm, least square method
Experimental: Inhibition of lipoperoxide production in rat cerebral tissues
(1) Preparation of cerebral tissue homogenate
A rat was slaughtered with carbon dioxide, and immediately after blood sampling from the heart, brain was removed and weighed. A 5% (w/v) tissue homogenate was prepared by a homogenizer with PBS (pH 7.3). Homogenation was conducted two times for 15 seconds (scale 10) while cooling.
(2) Inhibition of lipoperoxide production in rat cerebral 4issues.
Each of the test drugs (50 μl, concentration 10, 1, 0.1, 0.01, 0.001 μg/ml) was placed in a polypropylene tube, to which was added cerebral tissue homogenate (1 ml), followed by incubation at 37° C. in a thermobath for 120 minutes. Thereafter, 1% phosphoric acid (0.3 ml), 10% phosphotungstic acid (0.2 ml) and 0.67% TBA (tiobarbituric acid) agent (1 ml) were added thereto while stirring as necessary, and immediately thereafter, TBA reaction was conducted in a boiling water bath for 20 minutes. The mixture was cooled in ice water for 5 minutes, and added with n-butanol (4 ml). After 10 minutes' shaking extraction, it was centrifuged at 3000 rpm and at room temperature (low temperature causes change of absorbance) for 10 minutes. The absorbance of the butanol layer (upper layer) was measured at a wavelength of 535 nm. The difference between the absorbance of the control incubated at 37° C. (added with dimethylsulfoxide only) and that of the control cooled at 2° C. (added with dimethylsulfoxide only) was taken as the amount of 100% lipoperoxide production, and the percent suppression of the drug was calculated from the following formula. [formula] wherein A is the difference of absorbance of 37° C. control and 2° C. control, and B is the difference of absorbance of a drug sample and 2° C. control. The IC50 (μg/ml) was calculated by least square method using the percent inhibition at each concentration.

[2] = test system: TPA-induced mouse ear edema; experiment: Effect on TPA-induced mouse ear edema test; type: in vivo, male ICR mice; conditions: inhibition of ear edema (ear weight difference) vs control; TPA 1 μg/20 μl, topical; drug dissolved in TPA solution (100 μg/20 ml); 5 hours
Experimental: Effect on TPA-induced mouse ear edema test
Male ICR mice weighing about 20 g were etherized, and fixed at the dorsal position. TPA (12-O-tetradecanoylphorbol-13-acetate: phorbol 12-myristate-13-acetate, 1 μg/20 μl) dissolved in a mixed solution of acetone: pyridine: water (97:2:1) was coated on the left year while drying with a dryer. Five hours later, the mice were slaughtered by vertebral dislocation. The both ears were stamped out with a circle chisel (punch), and weighed. The weight difference between the both ears was taken as an index of the degree of edema, and the percent inhibition was calculated from the comparison with the control. Each drug was dissolved in TPA solution (100 μg/20 ml).

Compound	IC50 [1] [µg/mL]	Inhibition (%) [2] [%]
Cc1ccc(O)c(N(C)CCOC(c2ccccc2)c2ccccc2)c1 [Compound 10]	0.23 (≈ 0.662 µM)	–
CN(C)CC=C(c1ccc(Cl)cc1)c1ccc(O)c(N(C)C)c1 [Compound 5, 1-(4-chlorophenyl)-3-dimethylamino-1-(3-dimethylamine-4-hydroxyphenyl)-1-propene]	0.20 (≈ 0.604 µM)	75.0
CN1CCN(C(c2ccc(Cl)cc2)c2ccc(O)c(N(C)C)c2)CC1 (stereo not drawn) [Compound 3, 4-[1-(4-chlorophenyl)-1-(4-methylpiperazino)]methyl-2-dimethylaminophenol]	–	71.1
Cc1ccc(O)c(NCCCN2CCN(C(c3ccccc3)c3ccccc3)CC2)c1 [Compound 14, 2-[3-(4-benzhydrylpiperazino)propyl]amino-4-methylphenol]	0.038 (≈ 0.0914 µM)	77.8
CN(C)c1cc(CN2CCN(C(c3ccccc3)c3ccc(Cl)cc3)CC2)ccc1O (stereo not drawn) [Compound 7, 4-[4-(4-chlorobenzhydryl)piperazino]methyl-2-dimethylaminophenol]	0.16 (≈ 0.367 µM)	54.6
CN(C)CCC(c1ccc(Cl)cc1)c1ccc(O)c(N(C)C)c1 (stereo not drawn) [Compound 6, 4-[1-(4-chlorophenyl)-3-dimethylaminopropyl]-2-dimethylaminophenol]	0.31 (≈ 0.931 µM)	62.7
Cc1ccc(O)c(N(C)CCCN2CCN(C(c3ccccc3)c3ccccc3)CC2)c1 [Compound 16, 2-[N-[3-(4-benzhydrylpiperazino)propyl]-N-methyl]amino-4-methylphenol]	0.30 (≈ 0.698 µM)	50.9
Cc1ccc(O)c(NCCCN2CCN(C(c3ccccc3)c3ccc(Cl)cc3)CC2)c1 (stereo not drawn) [Compound 15, 2-[3-[4-(4-chlorobenzhydryl)piperazino]propyl]amino-4-methylphenol]	0.12 (≈ 0.267 µM)	86.7
CN(C)CCN(Cc1ccc(O)c(N(C)C)c1)c1ccccc1 [Compound 4, 2-dimethylamino-4-[N-(2-dimethylaminoethyl)-N-phenyl]aminomethylphenol]	–	75.0
CN(C)CCOC(c1ccc(Cl)cc1)c1ccc(O)c(N(C)C)c1 (stereo not drawn) [Compound 1, 2-[1-(4-chlorophenyl)-1-(3-dimethylamino-4-hydroxyphenyl)methoxy]-N,N-dimethylethanamine]	0.39 (≈ 1.12 µM)	–
Cc1ccc(O)c(NCCCN2CCC(C(O)(c3ccccc3)c3ccc(Cl)cc3)CC2)c1 (stereo not drawn) [Compound 26, 2-[3-[4-(4-chlorophenyl)hydroxyphenylmethyl-1-piperidinyl]propyl]amino-4-methylphenol]	–	97.5
Cc1ccc(O)c(NC(C)CN2c3ccccc3Sc3ccccc32)c1 (stereo not drawn) [Compound 12, 2-[1-methyl-2-(phenothiazine-10-yl)ethyl]amino-4-methylphenol]	0.086 (≈ 0.237 µM)	74.7

Now from value to compound, other results behind:

IC50 [1] [µg/mL]	Compound	Inhibition (%) [2] [%]
0.066 (≈ 0.13 µM)	Cc1cc(NCCCN2CCN(C(c3ccccc3)c3ccc(Cl)cc3)CC2)c(O)c(C(C)(C)C)c1 (stereo not drawn) [Compound 20, 6-tert-butyl-2-[3-[4-(4-chlorobenzhydryl)piperazino]propyl]amino-4-methylphenol]	63.8
0.036 (≈ 0.0836 µM)	Cc1ccc(O)c(NCCCN2CCC(OC(c3ccccc3)c3ccccc3)CC2)c1 [Compound 19, 2-[3-(4-benzhydryloxy-1-piperidinyl)propyl]amino-4-methylphenol]	85.5
0.029 (≈ 0.0673 µM)	Cc1ccc(O)c(NCCCN2CCC(C(O)(c3ccccc3)c3ccccc3)CC2)c1 [Compound 18, 2-[3-(4-hydroxydiphenylmethyl-1-piperidinyl)propyl]amino-4methylphenol]	89.0
0.79 (≈ 1.67 µM)	Cc1ccc(O)c(N(CCCN2CCC(C(O)(c3ccccc3)c3ccccc3)CC2)C(C)C)c1 [Compound 23, 2-[N-[3-(4-hydroxydiphenylmethyl-1-piperidinyl)propyl]-N-isopropyl]amino-4-methylphenol]	39.2
0.013 (≈ 0.028 µM)	Cc1ccc(O)c(NCCCN2CCCN(C(c3ccccc3)c3ccc(Cl)cc3)CC2)c1 (stereo not drawn) [Compound 17, 2-[3-[4-(4-chlorobenzhydryl)homopiperazino)propyl]amino-4-methylphenol]	87.0
0.10 (≈ 0.221 µM)	Cc1ccc(O)c(NCCCN2CCN(C(c3ccc(F)cc3)c3ccc(F)cc3)CC2)c1 [Compound 32, 2-[3-[4-(4,4'-difluorobenzhydryl)piperazino]propyl]amino-4-methylphenol]	64.1
0.44 (≈ 0.894 µM)	Cc1ccc(O)c(N(CCCN2CCN(C(c3ccccc3)c3ccc(Cl)cc3)CC2)C(C)C)c1 (stereo not drawn) [Compound 21, 2-[N-[3-[4-(4-chlorobenzhydryl)piperazino]propyl]-N-isopropyl]amino-4-methylphenol]	44.4
